Two compounds from US20050245399A1, “Pyrazole derivatives as herbicidal compositions containing them” (ISHIHARA SANGYO KAISHA, LTD., priority 2004, published 2005) can be followed below.

Common to all, as to format: in vivo
The test system of assay [1] is crabgrass (Digitaria sanguinalis L.), DIGSA. As to the kind of experiment: Test Example 2 post-emergence (foliage treatment) herbicidal activity, DIGSA. The settings on record: 63 g a.i./ha. A digest of the protocol: (§1)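 Post-emergence, upland soil pots; leaf stage at spray: ECHCG 1.1-2.1 / DIGSA 1.0-2.0 / AMARE 0.1-1.5 / ORYSA 1.0-2. WP or EC formulation, set active ingredient rate, 500 L/ha water + 0.1% v/v spreader. Visual rating at d20-23, % control 0-100.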

Assay [2] relates to green foxtail (Setaria viridis L.): SETVI. Description: Test Example 1 pre-emergence herbicidal activity, SETVI. The settings on record: Rate 63 g a.i./ha, visually observed 20th to 23rd day after application. A digest of the protocol: (§2)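 Read-out: visual growth control (%, 0–100, 100 = complete kill) assessed 20 to 23 days post-treatment. Compound was applied pre-emergence by small sprayer, one day after sowing into upland soil pots, in 500 L/ha water.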

Assay [3] relates to velvetleaf (Abutilon theophrasti), ABUTH. As to the kind of experiment: Test Example 2 post-emergence (foliage treatment) herbicidal activity, ABUTH. The settings on record: 63 g a.i./ha. The method in brief:
(§3)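 Foliar spray of formulated compound (500 L/ha dilution water, 0.1% v/v spreader) onto young potted plants at defined leaf stages. Scored 0-100% by visual inspection 20-23 d post-spray.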

The subject of assay [4] is redroot pigweed (Amaranthus retroflexus L.): AMARE. Description: Test Example 1 pre-emergence herbicidal activity, AMARE. Particulars: Rate 63 g a.i./ha, visually observed 20th to 23rd day after application. The method in brief:
as §2

Assay [5] concerns barnyardgrass (Echinochiloa oryzicola: ECHOR). As to the kind of experiment: Test Example 3 water application herbicidal activity (paddy), ECHOR. Particulars: 63 g a.i./ha, water application under submerged condition at 0.5 leaf stage, visually observed 14th day after application; 0 = untreated control, 100 = complete kill. The method in brief:
(§4)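 Flooded paddy-soil pots in greenhouse; ECHOR and SCPJO sown, SAGPY tubers planted a day later, compound applied into 3–4 cm water at weeds' 0.5-leaf stage. Rice transplanted at 2-leaf stage, treated day 4 after transplanting. Visual growth control 0–100% at 14 days (weeds) and 21 days (rice) after application.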

For assay [6], the system named is barnyardgrass (Echinochloa crus-galli L.), ECHCG. Description: Test Example 2 post-emergence (foliage treatment) herbicidal activity, ECHCG. The settings on record: 63 g a.i./ha. The method in brief:
as §1

The test system of assay [7] is prickly sida (Sida spinosa L.), SIDSP. Description: Test Example 2 post-emergence (foliage treatment) herbicidal activity, SIDSP. Particulars: 63 g a.i./ha. The method in brief:
as §3

Assay [8] concerns crabgrass (Digitaria sanguinalis L.): DIGSA. As to the kind of experiment: Test Example 1 pre-emergence herbicidal activity, DIGSA. Particulars: Rate 63 g a.i./ha, visually observed 20th to 23rd day after application. A digest of the protocol:
as §2

The test system of assay [9] is rice (Oryza sativa L.): ORYSA. Description: Test Example 1 pre-emergence herbicidal activity, ORYSA. Particulars: Rate 63 g a.i./ha, visually observed 20th to 23rd day after application. A digest of the protocol: as §2
For assay [10], the system named is soybean (Glycine max Merr.): GLXMA. Description: Test Example 1 pre-emergence herbicidal activity, GLXMA. Particulars: Rate 63 g a.i./ha, visually observed 20th to 23rd day after application. A digest of the protocol:
as §2

Assay [11] has as its system japanese ribbon wapato (Sagittaria pygmaea: SA GPY). Description: Test Example 3 water application herbicidal activity (paddy), SAGPY. The settings on record: 63 g a.i./ha, water application under submerged condition, tubers planted, visually observed 14th day after application; 0 = untreated control, 100 = complete kill. The method in brief: as §4
Assay [12] has as its system redroot pigweed (Amaranthus retroflexus L.), AMARE. Description: Test Example 2 post-emergence (foliage treatment) herbicidal activity, AMARE. Particulars: 63 g a.i./ha. A digest of the protocol:
as §1

The subject of assay [13] is soybean (Glycine max Merr.), GLXMA. As to the kind of experiment: Test Example 2 post-emergence (foliage treatment) herbicidal activity, GLXMA. The settings on record: 63 g a.i./ha. A digest of the protocol: as §3
Assay [14] deals with rice (Oryza sativa L.: ORYSA). As to the kind of experiment: Test Example 3 water application herbicidal activity (paddy), transplanted rice ORYSA. Particulars: 63 g a.i./ha, water application 4th day after transplantation of 2 leaf stage rice, visually observed 21st day after application; 0 = untreated control, 100 = complete kill. A digest of the protocol: as §4
Assay [15] concerns green foxtail (Setaria viridis L.), SETVI. Description: Test Example 2 post-emergence (foliage treatment) herbicidal activity, SETVI. The settings on record: 63 g a.i./ha. A digest of the protocol: as §3
In assay [16] the test system is rice (Oryza sativa L.), ORYSA. As to the kind of experiment: Test Example 2 post-emergence (foliage treatment) herbicidal activity, ORYSA. Particulars: 63 g a.i./ha. A digest of the protocol: as §1
Assay [17] deals with prickly sida (Sida spinosa L.): SEDSP. As to the kind of experiment: Test Example 1 pre-emergence herbicidal activity, SIDSP. Particulars: Rate 63 g a.i./ha, visually observed 20th to 23rd day after application. The method in brief: as §2
Assay [18] relates to velvetleaf (Abutilon theophrasti): ABUTH. As to the kind of experiment: Test Example 1 pre-emergence herbicidal activity, ABUTH. Particulars: Rate 63 g a.i./ha, visually observed 20th to 23rd day after application. A digest of the protocol: as §2
For assay [19], the system named is japanese bulrush (Scirpus juncoides: SCPJO). As to the kind of experiment: Test Example 3 water application herbicidal activity (paddy), SCPJO. Particulars: 63 g a.i./ha, water application under submerged condition at 0.5 leaf stage, visually observed 14th day after application; 0 = untreated control, 100 = complete kill. The method in brief: as §4
For assay [20], the system named is wheat (Triticum aestivum L.): TRZAX. Description: Test Example 1 pre-emergence herbicidal activity, TRZAX. The settings on record: Rate 63 g a.i./ha, visually observed 20th to 23rd day after application. The method in brief:
as §2

In assay [21] the test system is corn (Zea mays L.), ZEAMX. Description: Test Example 2 post-emergence (foliage treatment) herbicidal activity, ZEAMX. Particulars: 63 g a.i./ha. The method in brief: as §3
The test system of assay [22] is corn (Zea mays L.): ZEAMX. Description: Test Example 1 pre-emergence herbicidal activity, ZEAMX. Particulars: Rate 63 g a.i./ha, visually observed 20th to 23rd day after application. A digest of the protocol:
as §2

Assay [23] relates to barnyardgrass (Echinochloa crus-galli L.): ECHCG. Description: Test Example 1 pre-emergence herbicidal activity, ECHCG. Particulars: Rate 63 g a.i./ha, visually observed 20th to 23rd day after application. The method in brief: as §2
Assay [24] deals with wheat (Triticum aestivum L.), TRZAX. As to the kind of experiment: Test Example 2 post-emergence (foliage treatment) herbicidal activity, TRZAX. Particulars: 63 g a.i./ha. A digest of the protocol: as §3

Regarding `COCCOC(=O)Nc1c(OC)c(Cl)cc(F)c1-c1nn(C)c(OC(F)F)c1Cl` [Compound 1-61], the “growth controlling degree, DIGSP” value in assay [1] was determined as 100%. Moreover, in assay [2], the “Pre-emergence Herbicidal Activity SETVI (growth controlling degree)” value is on record as 100%. Also, the “growth controlling degree, ABUTH” value in [3] turned out to be 100%. The “Pre-emergence Herbicidal Activity AMARE (growth controlling degree)” value in [4] is recorded as 100%. The “growth controlling degrees (%) ECHOR” value in assay [5] was 100%. Moreover, the “growth controlling degree, ECHCO” value in [6] came to 100%. In [7], the “growth controlling degree, SIDSP” value is 100%. Also, the “Pre-emergence Herbicidal Activity DIGSP (growth controlling degree)” value in assay [8] is given as 100%. Moreover, the “Pre-emergence Herbicidal Activity ORYSA (growth controlling degree)” value in [9] was 70%. Further, the “Pre-emergence Herbicidal Activity GLXMA (growth controlling degree)” value in assay [10] came out at 10%. Also, the “growth controlling degrees (%) SAGPY” value in [11] amounted to 100%. In [12], the “growth controlling degree, AMARE” value amounted to 100%. Besides, in [13], the “growth controlling degree, GLXMA” value amounted to 80%. For the same compound, the “growth controlling degrees (%) ORYSA” value in assay [14] is 95%. Further, the “growth controlling degree, SETVI” value in assay [15] is recorded as 100%. Also, the “growth controlling degree, ORYSA” value in assay [16] is on record as 80%. Moreover, in assay [17], the “Pre-emergence Herbicidal Activity SIDSP (growth controlling degree)” value worked out at 100%. Moreover, in [18], the “Pre-emergence Herbicidal Activity ABUTH (growth controlling degree)” value is 100%. Besides, the “growth controlling degrees (%) SCPJO” value in assay [19] is recorded as 90%. The “Pre-emergence Herbicidal Activity TRZAX (growth controlling degree)” value in assay [20] is given as 50%. The “growth controlling degree, ZEAMX” value in assay [21] is on record as 80%. Moreover, the “Pre-emergence Herbicidal Activity ZEAMX (growth controlling degree)” value in assay [22] was found to be 30%. The “Pre-emergence Herbicidal Activity ECHCG (growth controlling degree)” value in assay [23] was 100%. In addition, the “growth controlling degree, TRZAX” value in [24] came out at 60%.

As for `COc1ccc(OC(=O)Nc2c(OC)c(Cl)cc(F)c2-c2nn(C)c(OC(F)F)c2Cl)cc1` [Compound 1-57], the “growth controlling degree, DIGSP” value in assay [1] was 100%. For the same compound, the “Pre-emergence Herbicidal Activity SETVI (growth controlling degree)” value in [2] amounted to 95%. For the same compound, the “growth controlling degree, ABUTH” value in [3] was 100%. For the same compound, in [4], the “Pre-emergence Herbicidal Activity AMARE (growth controlling degree)” value is 100%. In addition, in [5], the “growth controlling degrees (%) ECHOR” value came out at 100%. Moreover, the “growth controlling degree, ECHCO” value in [6] stood at 100%. Also, in [7], the “growth controlling degree, SIDSP” value is 100%. The “Pre-emergence Herbicidal Activity DIGSP (growth controlling degree)” value in assay [8] came to 80%. Besides, in assay [9], the “Pre-emergence Herbicidal Activity ORYSA (growth controlling degree)” value was found to be 20%. Moreover, the “Pre-emergence Herbicidal Activity GLXMA (growth controlling degree)” value in [10] worked out at 0%. Besides, the “growth controlling degrees (%) SAGPY” value in [11] worked out at 100%. The “growth controlling degree, AMARE” value in assay [12] is listed as 100%. For the same compound, the “growth controlling degree, GLXMA” value in [13] was 90%. Also, in assay [14], the “growth controlling degrees (%) ORYSA” value stood at 50%. Also, the “growth controlling degree, SETVI” value in assay [15] is recorded as 100%. In addition, the “growth controlling degree, ORYSA” value in [16] came out at 95%. In addition, in [17], the “Pre-emergence Herbicidal Activity SIDSP (growth controlling degree)” value amounted to 70%. Further, the “Pre-emergence Herbicidal Activity ABUTH (growth controlling degree)” value in [18] worked out at 60%. Moreover, in assay [19], the “growth controlling degrees (%) SCPJO” value is given as 100%. Further, the “Pre-emergence Herbicidal Activity TRZAX (growth controlling degree)” value in [20] stood at 30%. Further, the “growth controlling degree, ZEAMX” value in assay [21] is 90%. In assay [22], the “Pre-emergence Herbicidal Activity ZEAMX (growth controlling degree)” value is listed as 0%. Also, the “Pre-emergence Herbicidal Activity ECHCG (growth controlling degree)” value in assay [23] was determined as 70%. Also, in assay [24], the “growth controlling degree, TRZAX” value came out at 40%.
